# Laboratory results reported in publication PMC6272905, “In Vitro and In Vivo Characterization of Selected Fluorine-18 Labeled Radioligands for PET Imaging of the Dopamine D3 Receptor” (Molecules, 2016).
# Read-outs that look alike come from different tables or passages of the source.
# What was measured:
# [1] = In vivo stability in blood of living rats (radiometabolites); set-up: species or system rat
# Method: For the determination of radioligand stability in vivo and detection of radiometabolites the respective radiotracer (15 MBq) was administered intravenous to male Sprague Dawley rats (200–250 g) under isoflurane anesthesia. Blood samples were drawn intravenous after 5, 15 and 30 min and centrifuged for 5 min at 2000 rpm in heparin-coated vials. An aliquot of 50 µL was taken from the supernatant and added to an equal volume of water (10% TFA). The protein precipitate was centrifuged off for 5 min at 25,000 rpm and an aliquot of the supernatant was fractioned with HPLC (Chromolith RP-18e, 100 mm × 4.6 mm, 4 mL/min, solvent A: water (0.1% TFA), solvent B: acetonitrile (0.1% TFA), gradient A/B: 90:10 to 0:100 in 15 min, λ = 214 nm). The fractions were then analyzed in the gamma-counter. To identify the fractions containing the intact radioligand, the retention time and fractioning of the respective tracer was previously assessed. Two independent experiments were performed.
# dopamine D3 receptor = assay: Dynamic small-animal PET recordings; type: in vivo; conditions: rat
# Method: Small-animal PET imaging studies were conducted with male Sprague Dawleys rats (250–300 g) on a Inveon microPET scanner (Siemens Healthcare, Erlangen, Germany) under isoflurane (3%) anesthesia. After intravenous injection of [^18F]2b (10–15 MBq), dynamic emission recordings consisting of 13 frames of duration increasing from 30 s to 10 min were acquired to a total of 60 min. For displacement studies BP897 (1 mg/kg) was administered 30 min prior to radioligand injection. Dynamic emission images were corrected for attenuation and decay, and reconstructed by the iterative maximum a posteriori estimation, using software installed in the Inveon PET for dead time and random correction. The dynamic PET scan was then evaluated using the software Amide. The regions of interest were evaluated voxel based and the mean activity in %ID/g of each frame calculated.
# [2] = Free fraction in rat plasma; type: in vitro ADME; conditions: for bound to proteins in plasma: of the injected dose; for free radioligand in rat plasma: Figure 3b
# Method: (§1) The free fraction in vitro was determined by adding the respective radioligand (100 kBq) to plasma or CSF (200 µL) and mixed vigorously. Aliquots of 20–50 µL were transferred to size exclusion chromatography columns (MicroSpin G-50; GE Healthcare GmbH, Solingen, Germany, centrifuged for two min at 2000 rpm, and the radioactivity in the filtrate and in the resin were measured in the gamma-counter. Three independent experiments were performed in triplicates.
# For the ex vivo determination of the radioligands binding to proteins the respective tracer (15 MBq) was administered intravenous to male Sprague Dawley rats (200–250 g) under isoflurane anesthesia. Blood samples were drawn intravenous after 5, 15 and 30 min and centrifuged for 5 min at 2000 rpm in heparin-coated vials. An aliquot of 50 µL was taken from the supernatant and added to an equal volume of water (10% TFA). The protein precipitate was centrifuged off for 5 min at 25,000 rpm and analyzed together with a further 50 µL aliquot of the supernatant in the gamma-counter. Two independent experiments were performed.
# D3 receptor [3] = conditions: cited from earlier work
# [4] = In vitro stability in human serum; type: in vitro ADME; conditions: 37 °C, after 120 min
# Method: For the in vitro stability, an aliquot of the respective radioligand (1–5 MBq) was added to human serum (200 μL) and incubated at 37 °C. Aliquots (20 μL) were taken after 15, 30 and 120 min and analyzed by radio-HPLC (Method 1).
# [5] = Binding to proteins in human plasma in vitro; type: in vitro ADME; conditions: human vs rat plasma
# Method: as §1
# D3 receptor [6] = target: T1, D3 receptor (Rattus norvegicus, UniProt P19020); assay: In vitro autoradiography of coronal rat brain sections; type: binding; conditions: displacement with BP897
# T1 construct: In vitro autoradiography of coronal rat brain sections after incubation with the respective radioligand; from tissue; host or cells: coronal brain cryosections (20 µm) of male Sprague Dawley rats
# T1 sequence (P19020 whole entry): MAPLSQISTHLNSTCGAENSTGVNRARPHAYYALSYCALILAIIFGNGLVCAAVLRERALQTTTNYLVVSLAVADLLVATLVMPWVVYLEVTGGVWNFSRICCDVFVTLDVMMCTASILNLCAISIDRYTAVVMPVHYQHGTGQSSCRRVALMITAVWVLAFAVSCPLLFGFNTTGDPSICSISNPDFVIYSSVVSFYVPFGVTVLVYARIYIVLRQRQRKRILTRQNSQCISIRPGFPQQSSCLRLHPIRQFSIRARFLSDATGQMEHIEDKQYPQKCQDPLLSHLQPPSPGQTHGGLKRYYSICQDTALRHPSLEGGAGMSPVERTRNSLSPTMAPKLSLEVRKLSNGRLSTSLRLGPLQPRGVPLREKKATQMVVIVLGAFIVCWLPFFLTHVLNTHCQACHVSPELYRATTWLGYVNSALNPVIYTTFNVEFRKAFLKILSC
# Method: Male Sprague Dawley rats (200–250 g) were sacrificed by decapitation under deep isoflurane anesthesia and brains were removed and frozen in cooled hexane at −70 °C. Coronal brain sections (20 µm) were cut on a cryostat microtome (HM550, Microm-Thermo Fisher Scientific, Walldorf, Germany) and thaw-mounted on covered glass slides (Histobond®, Marienfeld, Lauda Königshofen, Germany). The thaw mounted sections were stored at −20 °C up to 14 days.
# The cryostat sections were pre-incubated for 15 min in incubation buffer (50 mM Tris-HCl, 40 mM NaCl, pH 7.4) at room temperature. The sections were then placed in incubation buffer containing 5 MBq of the respective tracer. For displacement studies BP897 (50 nM or 1 µM) was added. The sections were incubated at room temperature for 45 min and afterwards washed in ice cold incubation buffer for 3 × 5 min. Subsequently, they were dipped in water and after drying placed on a phosphor imaging screen (Fujitsu, Berlin, Germany) over night. The screens were analyzed with a DUERR Medical HD-CR 35 Bio (Raytest, Straubenhardt, Germany) and evaluated using the software AIDA image analyzer (Raytest). For anatomical identification of brain regions, the sections were compared with figures in the rat brain atlas.
# [7] = Determination of log D7.4 (experimental); type: physicochemical; conditions: pH 7.4, n = 6
# Method: Human serum was purchased (Biochrom, Biochrom, UK). Human plasma and cerebrospinal fluid was a kind gift from the laboratory of Prof. P. Lewczuk of the clinical neurochemistry in Erlangen. Rat plasma was collected from male Sprague Dawley blood samples. The blood samples were collected intravenous and centrifuged at 2000 rpm for 15 min in heparin coated vials. The supernatant was stored in aliquots at −20 °C. Radioactivity was measured with radio HPLC or in a gamma-counter (Wallac Wizard, PerkinElmer, Waltham, MA, USA). The determination of the distribution coefficient at pH 7.4 (log D7.4) has been previously published.
# [8] = set-up: method as in PMID 24339325, PMID 26707848; conditions: experimental, pH 7.4, n = 6, previously reported; cited from earlier work
# [9] = set-up: method as in PMID 24339325, PMID 26707848; conditions: over 120 min, previously reported; cited from earlier work
# P-gp [10] = target: T2, P-gp (Homo sapiens, UniProt P08183); assay: Bi-directional transport assay in Caco-2 cells; type: cell-based
# T2 construct: endogenous in cells; host or cells: Caco-2
# T2 sequence (P08183 whole entry): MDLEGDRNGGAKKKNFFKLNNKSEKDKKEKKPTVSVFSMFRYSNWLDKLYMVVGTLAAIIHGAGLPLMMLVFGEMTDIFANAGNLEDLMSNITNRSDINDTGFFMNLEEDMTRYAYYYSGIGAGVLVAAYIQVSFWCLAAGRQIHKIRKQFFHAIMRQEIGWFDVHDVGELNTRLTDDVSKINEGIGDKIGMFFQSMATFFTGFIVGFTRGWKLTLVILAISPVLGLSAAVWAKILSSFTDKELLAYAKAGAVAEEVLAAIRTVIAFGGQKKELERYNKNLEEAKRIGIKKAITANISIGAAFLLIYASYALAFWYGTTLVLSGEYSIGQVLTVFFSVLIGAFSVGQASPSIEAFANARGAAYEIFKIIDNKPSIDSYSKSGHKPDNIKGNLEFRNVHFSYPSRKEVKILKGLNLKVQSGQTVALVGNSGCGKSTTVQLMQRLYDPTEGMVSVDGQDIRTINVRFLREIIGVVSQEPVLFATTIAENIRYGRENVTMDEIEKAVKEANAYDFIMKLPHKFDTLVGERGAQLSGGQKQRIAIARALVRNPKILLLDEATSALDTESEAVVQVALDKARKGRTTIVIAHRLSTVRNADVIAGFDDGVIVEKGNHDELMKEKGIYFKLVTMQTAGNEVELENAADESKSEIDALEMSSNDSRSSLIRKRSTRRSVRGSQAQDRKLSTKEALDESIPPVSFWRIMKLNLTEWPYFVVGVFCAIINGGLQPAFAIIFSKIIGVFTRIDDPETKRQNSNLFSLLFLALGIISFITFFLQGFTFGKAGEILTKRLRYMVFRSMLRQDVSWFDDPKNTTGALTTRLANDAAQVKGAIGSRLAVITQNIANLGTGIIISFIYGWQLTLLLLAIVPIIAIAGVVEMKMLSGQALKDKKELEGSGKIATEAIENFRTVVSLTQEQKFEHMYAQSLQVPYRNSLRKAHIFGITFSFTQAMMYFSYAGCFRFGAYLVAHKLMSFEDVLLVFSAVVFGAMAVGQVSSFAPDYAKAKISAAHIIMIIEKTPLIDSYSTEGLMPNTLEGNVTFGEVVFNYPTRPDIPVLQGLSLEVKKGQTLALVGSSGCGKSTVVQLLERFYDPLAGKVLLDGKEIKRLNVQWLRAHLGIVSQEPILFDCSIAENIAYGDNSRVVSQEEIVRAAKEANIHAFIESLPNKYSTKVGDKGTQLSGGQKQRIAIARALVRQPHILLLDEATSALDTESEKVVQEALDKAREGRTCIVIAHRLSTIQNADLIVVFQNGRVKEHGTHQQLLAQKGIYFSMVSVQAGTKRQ
# Method: The procedure of initially adding equal concentrations to both compartments was adapted from the literature. Caco-2 cells were seeded near confluency in thin-cert inserts (translucent, Ø 0.4 µm, 24 well PET membrane, Greiner) and placed in multiwell plates (CELLSTAR 24 Multiwell plates, Greiner). The culture medium basolateral (multiwell) and apical (insert) was renewed every 2–3 days. Approximately 12 days after seeding the Caco-2 cells reached their highest trans-epithelial resistance, which was monitored every four days and on day of the experiment. An immunocytochemistry was also performed with an additional insert (translucent) to confirm stable formation of tight-junctions and cell monolayer. Culture medium was then removed and the cells were washed with PBS. Culture medium supplemented with cyclosporin (10 µM) was added to both compartments and the cells were incubated at 37 °C for 30 min. Afterwards 1 MBq [^18F]2b was added to each compartment. An aliquot was taken from each compartment after 0, 30, 60 and 90 min and analyzed in the gamma-counter. To identify cyclosporine-A induced accumulation the experiment was also performed using culture medium lacking cyclosporine-A. As positive control the experiment was performed with ^99mTc-MIBI (100 kBq/ compartment).
# P-gp [11] = target: T2, P-gp; assay: P-gp inhibition assay (cellular uptake) in EA.hy926 cells; type: cell-based; conditions: with vs without cyclosporin-A
# Method: (§2) EA.hy926 cells were seeded in culture medium at confluency the day prior to experiment or in case of the Caco-2 cells two days prior to experiment in 24-multiwell plates (Greiner Bio-One International GmbH, Kremsmünster, Austria). On the day of the experiment the culture medium was removed and the cells were washed once with PBS (500 µL). Culture medium supplemented with cyclosporine-A (5 µM for EA.hy926 and 10 µM for Caco-2) was added and the cells were incubated at 37 °C for 30 min. Afterwards 1 MBq of [^18F]2b was added to each well and incubated for further 30, 60 and 90 min. After incubation cells were washed with ice cold PBS (500 µL) and lysated with 0.1 M NaOH. The medium and lysates were analysed in the gamma-counter. To identify cyclosporine-A induced accumulation the experiment was also performed using culture medium lacking cyclosporine-A. As positive control the experiment was performed with ^99mTc-MIBI (100 kBq/well), a known P-gp substrate. To determine the lowermost concentration with which a maximum effect was obtained, cyclosporine-A was applied in a range of 0–50 µM and observed in a time frame of 30–120 min for both cell lines.
# P-gp [12] = target: T2, P-gp; assay: P-gp inhibition assay (cellular uptake) in Caco-2 cells; type: cell-based; conditions: with vs without cyclosporin-A
# Method: as §2
# [13] = Caco-2, absence of cyclosporin-A, up to 90 min
compound,measurement,setting,value
"O=C(NCCC(O)CN1CCN(c2cccc(Cl)c2Cl)CC1)c1ccc(F)nc1 (centres unmarked) [[^18F]1, N-(4-(4-(2,3-Dichlorophenyl)piperazine-1-yl)-3-hydroxybutyl)-6-fluoronicotinamide]",intact tracer in rat plasma,[1]; 15 min post intravenous injection,57%
same,intact tracer in rat plasma,[1]; nearly constant over the total sampling time,~ 60%
same,uptake in the pituitary gland,dopamine D3 receptor; 30 min p.i.,0.45 %ID/g
same,maximum uptake in the cerebral matter,dopamine D3 receptor; after 50 seconds,0.25 %ID/g
same,uptake in the cerebral matter after wash-out,dopamine D3 receptor; over the 60 min of recording,0.17 %ID/g
same,bound to proteins in plasma,[2],58%
same,free radioligand in rat plasma,[2],42%
same,Ki,D3 receptor [3],1.9 nM
same,decomposition in human serum,[4],≤ 2%
same,binding to human plasma higher than in rat plasma,[5],20%–30%
same,binding pattern in rat brain sections,D3 receptor [6],pronounced non-specific binding in the corpus callosum and anterior commissure
same,logD,[7],2.5 ± 0.04
O=C(/N=N/c1ccc([18F])cc1)NCCC(O)CN1CCN(c2cccc(Cl)c2Cl)CC1 (centres unmarked) [[^18F]2a],"brain uptake smaller than for [^18F]2b, factor",dopamine D3 receptor,1.5
same,uptake in the pituitary gland,dopamine D3 receptor; 25 min p.i.,0.6 %ID/g
same,bound to proteins in plasma,[2],82%
same,free radioligand in rat plasma,[2],18%
same,Log D7.4,[8],2.56 ± 0.01
same,decomposition in human serum,[9],no decomposition was observed
same,Ki,D3 receptor [3],3.6 nM
same,binding pattern in rat brain sections,D3 receptor [6],homogenous non-specific binding throughout the whole rat brain sections
"[99Tc].[C-]#[N+]CC(C)(C)OC.[C-]#[N+]CC(C)(C)OC.[C-]#[N+]CC(C)(C)OC.[C-]#[N+]CC(C)(C)OC.[C-]#[N+]CC(C)(C)OC.[C-]#[N+]CC(C)(C)OC [^99mTc-MIBI, ^99mTc-methylisobutylnitrile, reference compound]","concentration in the apical compartment, % of the initial concentration",P-gp [10]; [13],120%
same,"concentration in the basolateral compartment, % of the initial concentration",P-gp [10]; [13],70%
same,concentration in the basolateral compartment,"P-gp [10]; Caco-2, presence of cyclosporin-A",remained nearly constant
same,"concentration in the apical compartment, % of the initial concentration","P-gp [10]; Caco-2, presence of cyclosporin-A (^99mTc-MIBI after 60 and 90 min; [^18F]2b after 30 min)",90%
same,influence of cyclosporin-A on cellular uptake,P-gp [11],accumulated
same,influence of cyclosporin-A on cellular uptake,P-gp [12],accumulated
